Laboratory results taken from patent US10300061B2, “Aminothiazole compounds as protein kinase inhibitors” (priority 2017, dated 2019).
pIC50: −log10 of the molar value. Counter-ions that a name gives are not always drawn.

Experiments:
Kasumi-1 = Kasumi-1 MTS cell viability assay; type: cell-based; conditions: Homo sapiens, leukemia cell line, 72 hours
Method: (§1) A study was carried out as follows to evaluate in vitro anticancer activity of certain compounds prepared according to EXAMPLE 1 using cell lines and MTS cell viability assays (MTS represents 3-(4,5-dimethylthiazol-2-yl)-5-(3-carboxymethoxyphenyl)-2-(4-sulfophenyl)-2H-tetrazolium).
(§2) Leukemia cell lines MOLM-13, MV4:11, and Kasumin-1 were purchased from American Type Culture Collection (ATCC, Manassas, Va., USA). The human gastrointestinal stromal tumor GIST-T1 cell line was purchased from Cosmo Bio Co., LTD (Tokyo, Japan). All leukemia cell lines were maintained in RPMI 1640 medium supplemented with 10% fetal bovine serum (FBS), 10 U/ml penicillin, and 10 µg/ml streptomycin at 37° C. and 5% CO2. The cell line GIST-T1 was cultured in DMEM medium supplemented with 10% FBS, 0.01% nonessential amino acids, 10 U/ml penicillin, and 10 µg/ml streptomycin.
(§3) Cells were seeded in 96-well culture plates at a density of 1×10^4 cells/100 μl/well in triplicates and were treated for 72 hours with an indicated concentration of test compound ranging from 1 nM to 10 μM. Colorimetric CellTiter 96® Aqueous One Solution Cell Proliferation assay (MTS assay; Promega, Madison, Wis., USA) was used to determine the cytotoxicity. The optical density at 492 nm was measured using a microplate photometer (Victor2; Perkin-Elmer, Waltham, Mass., USA). IC50 values were determined by MTS assay when cells were treated with test compound for 72 hours and calculated with GraphPad Prism 6. Each experiment was in triplicate.

MOLM-13 = MOLM-13 MTS cell viability assay; type: cell-based; conditions: Homo sapiens, leukemia cell line, 72 hours
Method: as §1, §2, §3

GIST-T1 = GIST-T1 MTS assay; type: cell-based; conditions: Homo sapiens, GISTT1; gastrointestinal stromal tumor cell line, 72 hours
Method: as §1, §2
as §3, with “GIST-T1 cells” for “Cells”, “8000” for “1×10^4”

MV4:11 = MV4:11 MTS cell viability assay; type: cell-based; conditions: Homo sapiens, leukemia cell line, 72 hours
Method: as §1, §2, §3

VEGFR2 = target: T1, VEGFR2 (Homo sapiens, UniProt P35968); experiment: VEGFR2 Kinase-Glo kinase assay; type: biochemical; conditions: GST-VEGFR2, 1 μM ATP, 30° C. 120 minutes
T1 construct: The recombinant GST-VEGFR2 (residues V789-V1356) containing kinase domain; GST; made in house; host or cells: Sf9 insect cells
T1 sequence (P35968 789-1356): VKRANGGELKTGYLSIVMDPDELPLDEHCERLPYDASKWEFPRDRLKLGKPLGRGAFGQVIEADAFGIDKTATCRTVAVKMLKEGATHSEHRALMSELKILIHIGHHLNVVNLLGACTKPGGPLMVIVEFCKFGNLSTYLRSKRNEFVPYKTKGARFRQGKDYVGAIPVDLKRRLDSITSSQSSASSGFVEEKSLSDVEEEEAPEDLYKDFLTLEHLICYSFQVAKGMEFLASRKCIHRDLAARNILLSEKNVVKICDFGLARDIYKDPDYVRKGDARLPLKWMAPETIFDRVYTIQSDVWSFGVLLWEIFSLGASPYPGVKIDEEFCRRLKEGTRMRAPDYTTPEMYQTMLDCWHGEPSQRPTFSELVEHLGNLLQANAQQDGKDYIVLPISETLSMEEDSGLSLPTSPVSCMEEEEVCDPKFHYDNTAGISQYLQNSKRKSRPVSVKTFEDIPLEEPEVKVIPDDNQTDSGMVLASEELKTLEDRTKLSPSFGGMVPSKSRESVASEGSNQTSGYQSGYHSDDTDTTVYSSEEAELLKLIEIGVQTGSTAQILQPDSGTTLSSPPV
Method: The recombinant GST-VEGFR2 (residues V789-V1356) containing kinase domain was expressed in Sf9 insect cells. The kinase assay was carried out in 96-well plates with tested compound in a final volume of 50 μl reaction at 30° C. for 120 minutes with following components: 25 mM HEPES pH 7.4, 10 mM MgCl2, 4 mM MnCl2, 0.5 mM Na3VO4, 2 mM DTT, 0.02% Triton X100, 0.01% BSA, 1 μM ATP, 2 μM polyGlu4:Tyr peptide, 50˜100 ng recombinant VEGFR2. Following incubation, 50 μl Kinase-Glo Plus Reagent (Promega, Madison, Wis., USA) was added to each well and the mixture was incubated at 25° C. for 20 min. A 70-μL aliquot of each reaction mixture was transferred to a black microtiter plate and the luminescence was measured on Wallac Vector 1420 multilabel counter (PerkinElmer, Shelton, Conn., USA).

GIST882 = GIST882 cell proliferation assay; type: cell-based; conditions: Homo sapiens, 144 hours
Method: (§4) GIST882, GIST48 and GIST430 cells were all cultured in incubators maintained at 37° C. and 5% CO2. GIST882 was cultured in RPMI-1640 supplemented with 20% fetal bovine serum (FBS). GIST48 was cultured with F10 supplemented with 20% FBS, 0.5% Mito, serum extender (BD Bioscience, 355006) and 1% pituitary extract bovine (BD Bioscience 354123). GIST430 was cultured in IMDM supplemented with 20% FBS. GIST882, GIST430 and GIST48 cells were provided by Dr. Jonathan A. Fletcher (Harvard Medical School, US).
(§5) GIST cells (4×10^4) were treated with different dosage of compounds. The treated GIST882 cells were incubated for 144 hours and GIST48 and GIST430 cells were incubated for 120 hours at 37° C. in 5% CO2. Cell proliferation was determined by incubating the cells with […] (Clontech, Calif., US) for 1 hour. The absorbance was measured at 450 nm using SpectraMax M5 microplate reader (Molecular Devices, US).

GIST430 = GIST430 cell proliferation assay; type: cell-based; conditions: Homo sapiens, 120 hours
Method: as §4, §5

GIST48 = GIST48 cell proliferation assay; type: cell-based; conditions: Homo sapiens, 120 hours
Method: as §4, §5

SMILES	GI50 (Kasumi-1) [nM]	GI50 (MOLM-13) [nM]	GI50 (GIST-T1) [nM]	GI50 (MV4:11) [nM]	pIC50 (VEGFR2)	GI50 (GIST882) [nM]	GI50 (GIST430) [nM]	GI50 (GIST48) [nM]
CCN1CCN(c2cc(Nc3ncc(-c4cncnc4)s3)nc(C)n2)CC1 [Compound 12, [6-(4-Ethyl-piperazin-1-yl)-2-methyl-pyrimidin-4-yl]-(5-pyrimidin-5-yl-thiazol-2-yl)-amine hydrochloride salt]	349	211	119	132	–	–	–	–
Cc1nc(Nc2ncc(-c3cccnc3)s2)cc(N2CCN(CCO)CC2)n1 [Compound 9, 2-{4-[2-Methyl-6-(5-pyridin-3-yl-thiazol-2-ylamino)-pyrimidin-4-yl]-piperazin-1-yl}-ethanol hydrochloride salt]	–	–	–	–	> 7.52	–	–	–
CCN1CCN(c2cc(Nc3ncc(-c4cccnc4)s3)nc(C)n2)CC1 [Compound 7, [6-(4-Ethyl-piperazin-1-yl)-2-methyl-pyrimidin-4-yl]-(5-pyridin-3-yl-thiazol-2-yl)-amine hydrochloride salt]	266	62	53	34	–	20	60	820
CCN1CCN(c2cc(Nc3ncc(-c4ccncc4)s3)nc(C)n2)CC1 [Compound 1, [6-(4-Ethyl-piperazin-1-yl)-2-methyl-pyrimidin-4-yl]-(5-pyridin-4-yl-thiazol-2-yl)-amine hydrochloride salt]	11	10	11	13	> 7.52	5	3.8	19
Cc1nc(Nc2ncc(-c3cccnc3)s2)cc(N2CCC(N(C)C)CC2)n1 [Compound 10, [6-(4-Dimethylamino-piperidin-1-yl)-2-methyl-pyrimidin-4-yl]-(5-pyridin-3-yl-thiazol-2-yl)-amine hydrochloride salt]	–	–	–	–	> 7.52	–	–	–
